How the values were obtained:
SW48 cells = test: Proliferation assay SW48 (CellTiterGlo, 96 hours); assay type: cell-based; conditions: Homo sapiens
In short: (§1)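 Cells in RPMI-1640/10% FCS were seeded overnight (SW48 2'000, DLD1-WRN-KO 1'500 cells/well), then exposed to eight 3-fold compound dilutions at 0.1% DMSO. ATP luminescence relative to a day-0 plate gives % growth (0% stasis, −100% complete kill). GI50 is the geometric mean of ≥2 independent replicates.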

DLD1-WRN-KO cells = test: Proliferation assay DLD1-WRN-KO (CellTiterGlo, 96 hours), off-target effects; assay type: cell-based; conditions: Homo sapiens
In short: as §1

[1] = test system: SW48 colorectal xenografts; test: Efficacy against subcutaneous SW48 colorectal xenografts; assay type: in vivo, Crl:NU(NCr)-Foxn1nu nude mice; conditions: for % T/C / maximal regression: amorphous sodium salt; for anti-tumor effect / relapse while on treatment: p.o. qd; for anti-tumor effect: all dose levels of the study; for relapse while on treatment: time of relapse dose dependent
Method: Experiments were performed in female Crl:NU(NCr)-Foxn1^nu-homozygous nude mice (Charles River). Animals were housed under Optimized Hygienic Conditions in Allentown XJ cages (IVC, max. 6 mice per cage) with food and water at libitum and a 12 h:12 h light:dark cycle. Animals were allowed to acclimatize for at least 1 week before being enrolled in the experimental design. The study described here was performed according to license 1975 approved by the Basel Cantonal Veterinary Office.
Tumors were established by subcutaneous inoculation of human colorectal cancer SW48 cells (5×10^6 cells/animal in 100 μL in HBSS). SW48 human colorectal cancer cells were obtained from ATCC. The cells were cultured in RPMI-1640 medium (BioConcept Ltd., #1-41F01-1) supplemented with 10% FCS (Bio Concept #2-01F30-1), 2 mM L-glutamine (BioConcept Ltd., #5-10K50-H), 1 mM sodium pyruvate (Bio Concept #5-60F00-H) and 10 mM HEPES (Bio Concept #5-31F00-H) at 37° C. in an atmosphere of 5% CO2 in air. To establish SW48 xenografts cells were harvested and re-suspended in HBSS (Sigma, #H6648) before injecting subcutaneously 100 μL containing 5 million cells in the right flank of animals which were anaesthetized with isoflurane. Tumor size, in mm^3, was calculated following the formula: (L×W2×π/6); where W=width and L=length of the tumor. As a measure of efficacy the % T/C value is calculated at the end of the experiment according to:
Tumor regression was calculated according to: […]
Where Δtumor volumes represent the mean tumor volume on the evaluation day minus the mean tumor volume at the start of the experiment.
Amorphous sodium salt of test compound (corrected by salt factor) was dissolved in an aqueous 20% w/v solution of 2-hydroxypropyl-beta-cyclodextrin (HPBCD). A range of concentrations was prepared by serial dilution starting from the solution at highest concentration for the highest dose in the study.
Treatment was initiated about two weeks post tumor cell inoculation, when the xenografts had reached a mean volume of approximately 200 mm^3. The tumor bearing animals were randomized based on tumor volumes into experimental groups with 6 animals per group and treatment was initiated. Compounds were dosed orally (p.o.) once per day (qd) at 1, 3, 5 or 10 mg/kg (Example 18A) and at 0.1, 0.3, 1, 3 mg/kg (Example 21A). In addition, a control group treated once per day with vehicle (20% 2-hydroxypropyl-β-cyclodextrin) was included in each study. Tumor volumes and body weights were measured two times per week until the study termination.

Row | SMILES | GI50 (SW48 cells) [nM] | GI50 (DLD1-WRN-KO cells) [µM] | % T/C ([1]; 1 mg/kg p.o. qd, day 32 of the study (fourteenth day of treatment)) [%] | maximal regression ([1]; 3 mg/kg p.o. qd, day 49 of the study (thirty first day of treatment)) [%] | maximal regression ([1]; 5 mg/kg p.o. qd, day 49 (thirty first day of treatment)) [%] | maximal regression ([1]; 10 mg/kg p.o. qd, day 63 (forty fifth day of treatment)) [%] | anti-tumor effect [1] | relapse while on treatment [1] | % T/C ([1]; 0.1 mg/kg p.o. qd, day 25 throughout 29th day of the study (tenth to fourteenth day of treatment)) [%] | % T/C ([1]; 0.3 mg/kg p.o. qd, day 29 of the study (fourteenth day of treatment), initial stasis followed by regrowth) [%] | maximal regression ([1]; 1 mg/kg p.o. qd, day 52 of the study (thirty seventh day of treatment)) [%] | maximal regression ([1]; 3 mg/kg p.o. qd, day 85 (seventieth day of the treatment)) [%]
1 | Cc1ncnc(C(=O)N2CCN(c3c4n(c5nc(C6=CCOCC6)nn5c3=O)[C@@H](C(=O)Nc3ccc(C(F)(F)F)cc3Cl)C[C@H]4C)C[C@H]2C)c1O [Example 18A, (7R,9R)—N-(2-chloro-4-(trifluoromethyl)phenyl)-2-(3,6-dihydro-2H-pyran-4-yl)-6-((R)-4-(5-hydroxy-6-methylpyrimidine-4-carbonyl)-3-methylpiperazin-1-yl)-7-methyl-5-oxo-5,7,8,9-tetrahydropyrrolo[1,2-c][1,2,4]triazolo[1,5-a]pyrimidine-9-carboxamide] | 40 | > 50 | 22 | 71 | 83 | 91 | Dose dependent anti-tumor effect was observed | Relapse was observed for all treatment groups |  |  |  | 
2 | Cc1ncnc(C(=O)N2CCN(c3c4n(c5nc(C6=CCOCC6)nn5c3=O)[C@@H](C(=O)Nc3ccc(C(F)(F)F)cc3Cl)C[C@H]4C)[C@H]3CC[C@@H]32)c1O [Example 21A, (7R,9R)—N-(2-chloro-4-(trifluoromethyl)phenyl)-2-(3,6-dihydro-2H-pyran-4-yl)-6-((1S,6S)-5-(5-hydroxy-6-methylpyrimidine-4-carbonyl)-2,5-diazabicyclo[4.2.0]octan-2-yl)-7-methyl-5-oxo-5,7,8,9-tetrahydropyrrolo[1,2-c][1,2,4]triazolo[1,5-a]pyrimidine-9-carboxamide] | 6 | > 50 |  |  |  |  | Dose dependent anti-tumor effect was observed | no relapse was observed in three animals treated at 1 mg/kg and in entire group treated at 3 mg/kg | 50 | 0 | 75 | 99

From US20240245694A1, “Tricyclic Compounds and their Uses” (Novartis AG, priority 2022, published 2024)
